Results as given in PMC4134510 (Journal of medicinal chemistry, 2010).

Key:
PDK1(h) = molecular target: T1, PDK1(h) (Homo sapiens, UniProt O15530); test: Kinase selectivity panel, enzymatic activity; assay type: biochemical; conditions: read-out: Enzymatic activity (% inhibition): PDK1(h)
T1 sequence (O15530 1-556): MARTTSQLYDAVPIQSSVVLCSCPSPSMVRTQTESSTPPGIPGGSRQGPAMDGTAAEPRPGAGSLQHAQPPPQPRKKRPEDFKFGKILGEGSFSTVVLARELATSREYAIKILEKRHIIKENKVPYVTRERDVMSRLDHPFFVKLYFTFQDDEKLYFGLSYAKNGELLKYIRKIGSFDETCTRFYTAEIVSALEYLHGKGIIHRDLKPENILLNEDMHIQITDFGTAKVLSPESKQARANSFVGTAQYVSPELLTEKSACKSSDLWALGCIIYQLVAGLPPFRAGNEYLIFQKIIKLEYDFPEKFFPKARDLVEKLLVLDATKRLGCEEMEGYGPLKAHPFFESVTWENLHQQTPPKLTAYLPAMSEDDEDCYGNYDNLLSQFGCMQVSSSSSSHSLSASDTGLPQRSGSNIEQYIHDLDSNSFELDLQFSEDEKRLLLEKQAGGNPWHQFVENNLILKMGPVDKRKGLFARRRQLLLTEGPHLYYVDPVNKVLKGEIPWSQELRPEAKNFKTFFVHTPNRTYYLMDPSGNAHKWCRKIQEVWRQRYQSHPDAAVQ

[1] = Pharmacokinetic properties on Balb/C mouse; conditions: in vivo, oral, 20 mg/kg
[2] = assay type: in vivo; conditions: mice, oral once daily

Cc1ccc(Nc2ncc3c(n2)N(C)C(=O)N(c2cc(NC(=O)c4cccc(C(F)(F)F)c4)ccc2C)C3)cn1 [GNF-7]
inhibition at 10 µM (PDK1(h)): 0%
AUC [1]: 26.7 µM·h
body weight change ([2]; 10 mg/kg dosing group): only a very small weight change
body weight loss ([2]; doses of 20 mg/kg and above): > 10%
